This is an account of results in publication PMC4700456, “Receptor for detection of a Type II sex pheromone in the winter moth Operophtera brumata” (Scientific Reports, 2016).

In the assay the target is T1, ObruOR1 (co-expressed with Obru\Orco) (Operophtera brumata, UniProt A0A140YWR3).
T1 construct: full-length, ObruOR1 430 aa, Obru\Orco 472 aa; pCS2+ vector, cRNAs co-injected in Xenopus laevis oocytes; with Odorant receptor co-receptor
T1 sequence (A0A140YWR3 1-430): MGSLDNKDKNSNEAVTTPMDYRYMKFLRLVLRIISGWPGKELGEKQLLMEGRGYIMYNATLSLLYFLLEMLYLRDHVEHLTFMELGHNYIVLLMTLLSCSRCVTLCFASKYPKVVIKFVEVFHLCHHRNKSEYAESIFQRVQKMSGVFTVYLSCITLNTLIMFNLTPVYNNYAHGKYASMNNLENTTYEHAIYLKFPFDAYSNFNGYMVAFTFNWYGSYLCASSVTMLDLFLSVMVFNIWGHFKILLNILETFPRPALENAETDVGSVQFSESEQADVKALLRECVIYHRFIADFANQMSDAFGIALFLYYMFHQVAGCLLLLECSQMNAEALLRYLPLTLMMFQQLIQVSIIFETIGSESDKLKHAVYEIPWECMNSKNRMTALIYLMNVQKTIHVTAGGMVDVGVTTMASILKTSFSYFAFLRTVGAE
T1 sequence (A0A140YWR4 1-472 partner): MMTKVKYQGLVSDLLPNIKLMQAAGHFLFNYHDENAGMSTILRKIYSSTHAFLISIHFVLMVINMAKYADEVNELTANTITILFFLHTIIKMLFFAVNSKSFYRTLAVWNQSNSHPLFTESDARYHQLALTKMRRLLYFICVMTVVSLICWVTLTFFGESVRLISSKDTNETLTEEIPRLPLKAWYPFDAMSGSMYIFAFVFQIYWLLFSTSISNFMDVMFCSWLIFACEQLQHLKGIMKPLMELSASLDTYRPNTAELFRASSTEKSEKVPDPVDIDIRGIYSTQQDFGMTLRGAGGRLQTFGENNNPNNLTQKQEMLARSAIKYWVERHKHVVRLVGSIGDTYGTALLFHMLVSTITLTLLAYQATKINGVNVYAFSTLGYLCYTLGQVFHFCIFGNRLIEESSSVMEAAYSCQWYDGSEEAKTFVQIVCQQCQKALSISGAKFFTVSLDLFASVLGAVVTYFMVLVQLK
The experiment in a line: two-electrode voltage clamp, Xenopus oocytes. Type of assay: cell-based. The conditions noted are these: agonist, holding potential -80 mV, Ringer's buffer, dose-response.

Consider `C=C/C=C\C/C=C\C/C=C\CCCCCCCCC` [1,3Z,6Z,9Z-19:H, (3Z,6Z,9Z)-1,3,6,9-nonadecatetraene], for which the threshold dose turned out to be 10 nM.
